From US20210381022A1, “INTEGRATED DRUG DISCOVERY PLATFORM FOR INBORN ERROR OF METABOLISM DISORDERS” (RAMOT AT TEL-AVIV UNIVERSITY LTD., priority 2018, published 2021)

How the values were obtained:
adenine fibrils [1] = assay: ThT assay of adenine self-assembly inhibition in vitro; conditions: adenine 8 mg/ml in PBS with inhibitor
Protocol: Adenine was dissolved at 90° C. in PBS to a final concentration of 8 mg/ml and mixed with the indicated inhibitor, at the indicated concentrations, or with PBS as a control, followed by addition of ThT in PBS. ThT emission data at 480 nm (excitation at 450 nm) were measured at the end point.
Adenine was dissolved to a final concentration of 8 mg/ml at 90° C. in PBS. The solution was plated on a 96-well black plate and mixed with the inhibitor baicalein at the stated concentration, and with 20 μm ThT (final concentration). Fluorescence (excitation at 450 nm, emission at 480 nm) was recorded over time using a Tecan™ Infinite® 200 PRO plate reader. Data processing was performed using the OriginLab software.
To further examine if the compounds specifically target the adenosine amyloid-like structures. the compounds were tested using adenine in-vitro aggregation assay. Adenine was self-assembled with and without the inhibitors and stained with the amyloids dye, Thioflavin T (ThT). […] More specifically. Adenosine (30 mg/mL) and guanosine (3 mg/ml) were dissolved in PBS at 90° C., followed by the addition of ThT at final concentration of 20 μM. ThT emission data at 480 nm (excitation at 450 nm) was measured over time. TEM images show elongated adenosine fibrils (10 mg/mL) and guanosine fibrils (1 mg/mL) (FIGS. 34A and 34B, respectively). ThT fluorescence assay of adenosine and guanosine assemblies, are shown by FIGS. 34C, and 34D respectively.

mutant yeast strain = assay: IC50 assay in yeast, rescue from adenine toxicity (HTS growth format); format: cell-based; conditions: Saccharomyces cerevisiae, 22 h, read-out: IC50, rescuing mutant yeast strain from adenine toxicity
Protocol: Yeast strains were grown over night at 30° C. in SD medium without adenine and were diluted to OD600 0.005. 80 μL of cells were platted on 384 wells plates and incubated at 30° C. for 22 hours with continuous shaking. OD600 was measured using Tecan™ SPARK 10M plate reader.
Yeast strains were diluted to OD600 0.005. 80 μL of cells were platted on 384 wells plates. Compounds were added with Tecan™ D300 printer at relevant concentrations and plates were incubated at 30° C. for 22 hours with continuous shaking. OD600 was measured using Tecan™ SPARK 10M plate reader. IC50 calculations were performed with CDD software.
The high-throughput screening was calibrated for 384 plate format using phenotypic assay based on yeast growth rate (measured by OD). The goal was to find hit compounds that will dramatically improve the growth rate as compared to the salvage mutant in the presence of adenine. All relevant controls were used including: mutant yeast grown without adenine addition, WT yeast, and mutant yeast in the presence of adenine with Prazosin as a positive control compound. Potential hits were selected after calculations of growth curve slopes and area under the curve during the logarithmic phase. After hit validation and dose response experiments, hits displaying low IC50 rates were selected implying on a good potential for some of the compounds (FIG. 14).

[2] = test system: adenosine aggregates in ADA deficient LCLs; assay: Aggregation assay (Proteostat, FACS) on ADA deficient LCLs; format: cell-based, human; conditions: for formation of adenosine aggregates (aggregation level, Proteostat staining): patient derived lymphoblastoids, 19 concentrations from 50 μM to 0.003 μM
Protocol: 24 hours after seeding in full medium cells were washed with medium without serum and placed in medium without serum. Following 72 hours of incubation with or without Adenosine (A9251 SIGMA) (200 ug/ml), cells were washed with PBS and stained for adenosine aggregates with Proteostat dye (ENZ-51023-KP002). Proteostat concentration was 1:3000 of diluted stock. Following 15 minutes' incubation, cells were washed with PBS and mean fluorescence was measured with FACS.
Cells were treated with adenosine alone or with adenosine with compounds. Compound activity was tested in 19 concentrations in range from 50 uM to 0.003 uM.
Readouts: Proteostat Fluorescence intensity was measured with FACS at 2 excitation wavelengths: 488 nm and 550 nm. Emission wavelength was 600 nm.
24 hours after seeding in 96 round bottom plates in full medium cells were washed once with medium without serum and placed in medium without serum. Following 72 hours of incubation with or without Adenosine (200 ug/ml) and with or without purpurin (2 uM), cells were washed once with PBS and stained for adenosine aggregates with Proteostat dye (Enzo Life Sciences). Proteostat concentration was 1:4000 of diluted stock. Following 15 minutes incubation, cells were washed with PBS and mean flow cytometry was preformed using Stratedigm S1000EXi and the CellCapTure software (Stratedigm, San Jose, Calif.). Analyses were performed using FlowJo software (TreeStar, version 10).
For quantification of intracellular adenosine aggregates by FACS analyses, 100,000 cells were seeded in 96 well plates in full medium. After 24 hours, cells were centrifuged, washed once and added with serum free medium with or without Adenosine (200 μg/ml). After incubation of 72 hours cells were washed with PBS and stained for adenosine aggregates with Proteostat dye. Following 15 minutes incubation, cells were washed with PBS and mean fluorescence was measured with FACS. Mean cell fluorescence of every cell line was normalized to its signal without adenosine and data is presented as percentage of aggregates.

ADA deficient LCLs = assay: LCLs survival assay (XTT), ADA deficient LCLs; format: cell-based, human
Protocol: (§1) 24 hours after seeding in 96 round bottom plates in full medium cells were washed once with medium without serum and placed in medium without serum. Following 72 hours of incubation with or without Adenosine (200 ug/ml) and with or without purpurin (2 uM), XTT based cell viability assay was performed. Absorbance was measured with Tecan™ SPARK 10M plate reader.
(§2) In order to assess the toxic effect of adenosine aggregates, XTT based cell viability assays were performed on healthy and ADA deficient LCLs. Cells went through similar procedure as described above except adenosine was at 300 μg/ml. Survival percentage was calculated as absorbance with adenosine divided by absorbance without adenosine. […] Moreover. 4 out of 5 ADA deficient cell lines display less than 20% survival (FIG. 15B cell lines 7,8,9,11,12).

aah1Δapt1Δ cells [3] = assay: Confocal microscopy with ProteoStat staining of salvage mutant; format: cell-based, Saccharomyces cerevisiae; conditions: adenine in media, TA 0.5 mM
Protocol: An amount of 1 mL of logarithmic cells were washed with PBS buffer, sonicated using 15 s pulses at 20% power and resuspended in 50 μL of ProtesoStat dye diluted 1:250 in ProteoStat assay buffer. Cells were incubated for 15 min at room temperature protected from light. 10 μL of each sample was deposited on poly-lysine coated glass slides (Sigma-Aldrich). Cells were imaged using Leica TCS SP8 laser confocal microscope with 63×1.4 NA or 100*1.4 NA oil objectives. To visualize the nuclei, Hoechst (33342; ImmunoChimestry) was used. An argon laser with 488 excitation line was used for ProteoStat (emission wavelength, 500 to 600 nm), and a 405 UV laser was used to excite Hoechst fluorescence (emission wavelength, 415 to 450 nm).

phenylalanine assemblies = conditions: reference [4]; cited from earlier work
cys4Δ strain = assay: Yeast growth assay of cys4Δ mutant with homocysteine; format: cell-based, Saccharomyces cerevisiae; conditions: 13 mg/L cysteine, 80 mg/L homocysteine, 0.3 mM TA
Protocol: FIG. 27E: WT and cys4Δ strains diluted to OD600 0.01 were grown in SD media containing 13 mg/L cysteine and 80 mg/L homocysteine in the under the indicated conditions. 0.3 mM TA was added to the samples at different OD600. The percentage of growth represents the growth the indicated condition compared to the growth of WT without TA. *P<0.05 (Student's t-test).
Homocystinuria results from cystathionine beta synthase (CBS) deficiency, leading to excess of Hcy. A knockout mutation in CYS4, the highly-conserved functional yeast ortholog of the human cystathionine beta synthase (CBS) known to be essential for Hcy salvage, was therefore generated. Due to the contribution of this enzyme to cysteine biosynthesis, it was first shown that its absence confers cysteine dependence (FIG. 27A). […] To examine whether the observed toxicity was associated with the in vivo formation of amyloid-like assemblies, the cells were stained with the amyloid-specific fluorescent dye ProteoStat which allows to detect intracellular amyloid fibrils. […] Next, to further establish the amyloid-like nature of the aggregates, the fibrillation-modifying polyphenolic compound tannic acid (TA) was used (FIG. 27E).

adenine fibrils [4] = conditions: previously demonstrated, reference [4]; cited from earlier work
wild-type strain = assay: Yeast growth assay of wild-type strain; format: cell-based, Saccharomyces cerevisiae; conditions: 13 mg/L cysteine, 80 mg/L homocysteine, 0.3 mM TA
Protocol: (§3) Strains were grown over night at 30° C. in SD medium without adenine. For spotting assays, strains were diluted to 6.25*10^7 cells/mL and were then 5-fold serially diluted and spotted on SD media with the indicated concentrations of adenine or TA (Sigma-Aldrich). Plates were incubated at 30° C. for 2 days. […] For OD600 measurements, strains were diluted to OD600 0.01, 200 μL of cells were platted on 96 wells plates and incubated at 30° C. for 25 hours with continuous shaking. OD600 was measured using Tecan™ SPARK 10M plate reader.

aah1Δapt1Δ cells [5] = assay: LC-MS detection of TA and adenine inside cells; format: cell-based, Saccharomyces cerevisiae; conditions: cells grown in SD medium containing adenine and TA
Protocol: 100 ml of cells at the logarithmic phase were centrifuged and washed three times with PBS. 1 ml of the growth medium and of each wash were collected for LC-MS analysis. After the third wash, the pellet was resuspended in PBS together with acid-washed glass beads. Tubes were vortexed for 45 minutes in 4° C. using disruptor-genie. Cell debris and soluble material were separated by centrifugation. Both fractions as well as the medium and washes were analyzed by MS. The pellet was resuspended in 200 μl DMSO, heated for 5 minutes at 85° C. and sonicated for 5 minutes at 40° C. The lysis mixture was centrifuged at 6000 rpm for 10 minutes. 150 μl of the lysate were transferred to a Waters 96 well ACQUITY collection plate for LC-MS analysis. 20 μl of each sample were injected to Waters Autopurification system analytical module equipped with SQD2 MS detector at the following conditions: a. LC: Waters XSelect Peptide CSH C18 column (5 μm, 4.6 mm×100 mm) using a 10 minute gradient from 95:5 Water:acetonitrile (both with 0.1% formic acid) to acetonitrile (0.1% formic acid); b. MS: acquisition parameters were optimized in order to select the proper ion for selected ion monitoring (SIR) experiments.

aah1Δapt1Δ strain = assay: Yeast growth assay of adenine salvage mutant with adenine feeding; format: cell-based, Saccharomyces cerevisiae
Protocol: as §3
For the percentage of growth analysis (FIG. 10B and FIG. 13A), OD600 was measured when cells reached log phase. The percentage of growth represents the growth with TA compared to the growth without TA.

[6] = test system: adenine aggregation in aah1Δapt1Δ cells; assay: Flow cytometry with ProteoStat staining of salvage mutant; format: cell-based, Saccharomyces cerevisiae; conditions: adenine in media, TA 0.5 mM
Protocol: An amount of 1 mL of logarithmic cells were washed with PBS buffer and sonicated using 15 s pulses at 20% power. For each sample, 2*10^6 cells were resuspended with ProteoStat dye (Enzo Life Sciences) diluted 1:3000 in ProteoStat assay buffer. Cells were incubated for 15 min at room temperature protected from light. Flow cytometry was preformed using Stratedigm S1000EXi and the CellCapTure software (Stratedigm, San Jose, Calif.). Live cells were gated (P1) by forward scatter and side scatter. Fluorescence channels for FITC (530/30) and PE-Cy5 (676/29) were used utilizing a 488 nm laser source. A total of 50,000 events were acquired for each sample. Analyses were performed using FlowJo software (TreeStar, version 10).

healthy LCLs = assay: LCLs survival assay (XTT), healthy LCLs; format: cell-based, human; conditions: adenosine 300 μg/ml
Protocol: as §1, §2

O=C1c2ccccc2C(=O)c2c(O)c(O)cc(O)c21 [Purpurin, 1,2,4-trihydroxyanthracene-9,10-dione]
amyloids staining (ThT, end point) (adenine fibrils [1]): significantly reduced the amyloids staining
IC50 (mutant yeast strain): 0.0144 µM
Proteostat staining of adenosine aggregates ([2]; 2 μM Purpurin, adenosine 200 μg/ml, 72 hours): reduced to significantly lower levels
formation of adenosine aggregates (aggregation level, Proteostat staining) [2]: significantly reduce the aggregation level
formation of adenosine aggregates (aggregation level, Proteostat staining) ([2]; listed as purpurin): inhibited the formation of these aggregates
cell viability (XTT) (ADA deficient LCLs; 2 μM Purpurin, with adenosine, 72 hours, vs control LCLs): substantial improvement in cell viability

O=C(OC[C@H]1O[C@@H](OC(=O)c2cc(O)c(O)c(OC(=O)c3cc(O)c(O)c(O)c3)c2)[C@H](OC(=O)c2cc(O)c(O)c(OC(=O)c3cc(O)c(O)c(O)c3)c2)[C@@H](OC(=O)c2cc(O)c(O)c(OC(=O)c3cc(O)c(O)c(O)c3)c2)[C@@H]1OC(=O)c1cc(O)c(O)c(OC(=O)c2cc(O)c(O)c(O)c2)c1)c1cc(O)c(O)c(OC(=O)c2cc(O)c(O)c(O)c2)c1 [TA, Tannic acid]
ProteoStat stained dots (confocal microscopy) (aah1Δapt1Δ cells [3]): absence of the stained dots
phenylalanine aggregation and cytotoxicity of the assemblies in vitro (phenylalanine assemblies): counteract
growth inhibition of the salvage mutant strain in the presence of Hcy (cys4Δ strain): significantly ameliorated the growth inhibition
adenine self-assembly in vitro (adenine fibrils [4]): inhibition of adenine self-assembly in vitro
growth of wild-type strain (wild-type strain): no effect was observed
presence inside the cell (LC-MS) (aah1Δapt1Δ cells [5]): detected inside the cell
formation of adenine amyloid-like assemblies / growth, inhibitor added at earlier time points (aah1Δapt1Δ strain; 0.5 mM TA added at earlier time points of yeast growth): hinder the formation of adenine amyloid-like assemblies
growth, inhibitor added at later stages (aah1Δapt1Δ strain; 0.5 mM TA added at later stages of yeast growth): no effect on their growth
cell growth of the salvage mutant (aah1Δapt1Δ strain; in the presence of adenine, TA added to the yeast media at various concentrations): clearly improved cell growth of the salvage mutant in a dose-dependent manner
metabolite aggregation (ProteoStat, flow cytometry) [6]: decrease in metabolite aggregation

Nc1ncnc2c1ncn2[C@@H]1O[C@H](CO)[C@@H](O)[C@H]1O [adenosine, Adenosine]
Proteostat staining of ADA deficient LCLs compared to healthy LCLs ([2]; adenosine 200 μg/ml, 72 hours): 2-3 fold
survival of ADA deficient LCLs in the presence of adenosine (ADA deficient LCLs; adenosine 300 μg/ml, XTT): below 40%
survival, 4 out of 5 ADA deficient cell lines (ADA deficient LCLs; adenosine 300 μg/ml, XTT): less than 20%
survival of healthy LCLs in the presence of adenosine (healthy LCLs): above 70%
